Measured values reported in paper PMC8864717 (Chemical Science, 2021).
pEC50: −log10 of the molar value. Read-outs that look alike come from different tables or passages of the source.

Legend:
[1] = cited from earlier work
SARS-CoV-2 [2] = assay type: cell-based; conditions: CBS 1000 μM, NAC 1000 μM, CBS 1000 μM + 3NAC 3000 μM, non-treated 64.5%
SARS-CoV-2 [3] = assay type: in vivo, golden Syrian hamster
SARS-CoV-2 M^pro = SARS-CoV-2 M^pro (Severe acute respiratory syndrome coronavirus 2, UniProt P0DTD1); assay type: biochemical; conditions: at comparable concentrations
SARS-CoV-2 PL^pro = SARS-CoV-2 PL^pro (Severe acute respiratory syndrome coronavirus 2, UniProt P0DTD1); assay type: biochemical; conditions: at comparable concentrations
SARS-CoV-2 [4] = experiment: Viral load reduction assay, SARS-CoV-2 in Vero E6 cells; assay type: cell-based; conditions: Vero E6, up to 2000 μM
[5] = cited from earlier work; remark: listed apart in the source
[6] = Blood bismuth concentration after oral administration in mice; assay type: in vivo; conditions: Balb/c mice, oral CBS 150 mg kg^-1 (NAC 180 or 610 mg kg^-1)
[7] = SD rats
[8] = pH 9.2, with NAC
Caco-2 cell monolayer = conditions: CBS 150 μM, without or with 10NAC 1.5 mM
[9] = Ex vivo everted gut sac model; assay type: in vitro ADME; conditions: rat duodenum, within 60 min, CBS 200 μM, pH 7.4
ACE2 = ACE2 (Homo sapiens, UniProt Q9BYF1); experiment: ACE2 activity inhibition assay; assay type: biochemical
SARS-CoV-2 [10] = conditions: read-out: EC50, SARS-CoV-2; cited from earlier work
[11] = single oral dose CBS 150 mg/kg, NAC 610 mg/kg, n = 5

Chain of ACE2 (Q9BYF1 18-805): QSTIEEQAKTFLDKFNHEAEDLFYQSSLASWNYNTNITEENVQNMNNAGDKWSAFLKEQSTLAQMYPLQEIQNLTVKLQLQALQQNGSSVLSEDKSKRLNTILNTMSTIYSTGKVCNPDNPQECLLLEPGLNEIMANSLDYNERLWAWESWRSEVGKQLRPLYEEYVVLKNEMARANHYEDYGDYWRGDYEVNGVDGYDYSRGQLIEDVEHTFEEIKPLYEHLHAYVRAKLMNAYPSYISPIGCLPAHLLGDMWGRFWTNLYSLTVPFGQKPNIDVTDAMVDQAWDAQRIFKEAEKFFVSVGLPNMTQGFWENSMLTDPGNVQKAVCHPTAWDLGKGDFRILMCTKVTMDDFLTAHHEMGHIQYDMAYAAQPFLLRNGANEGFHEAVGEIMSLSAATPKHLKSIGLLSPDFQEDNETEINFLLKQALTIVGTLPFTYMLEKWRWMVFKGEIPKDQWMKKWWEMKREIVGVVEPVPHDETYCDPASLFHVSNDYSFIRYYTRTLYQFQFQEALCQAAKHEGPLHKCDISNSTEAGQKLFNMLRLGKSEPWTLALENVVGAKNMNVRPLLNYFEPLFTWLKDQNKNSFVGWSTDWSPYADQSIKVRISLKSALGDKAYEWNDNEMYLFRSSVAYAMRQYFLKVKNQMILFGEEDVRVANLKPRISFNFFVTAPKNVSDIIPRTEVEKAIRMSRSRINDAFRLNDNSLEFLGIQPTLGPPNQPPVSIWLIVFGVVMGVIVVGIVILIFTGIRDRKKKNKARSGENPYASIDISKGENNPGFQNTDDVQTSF

## O=[N+]([O-])[O-].O=[N+]([O-])[O-].O=[N+]([O-])[O-].O=[N+]([O-])[O-].[Bi+3].[Bi+3].[Bi+3].[Bi+3].[Bi+3].[O-2].[OH-].[OH-].[OH-].[OH-].[OH-].[OH-].[OH-].[OH-].[OH-] [BSN, bismuth subnitrate]
[1]
  absorption of bismuth in the rat small intestine: lower than 1%

## CC(=O)N[C@@H](CS)C(=O)O [NAC, N-acetyl-L-cysteine]
SARS-CoV-2 [2]
  viral NP antigen in infected Vero E6 cells: 59.75%
SARS-CoV-2 [3]; hamster, in vivo, po
  SARS-CoV-2-NP antigen signal in alveolar tissue of hamster lungs: 85.67(±11.59) NP^+ cells per view
  lung pathology: partially relieve lung pathology
SARS-CoV-2 [3]; oral, CBS 300 mg kg^-1 or NAC 370 mg kg^-1, day -2 to 1, […]
  lung viral load versus vehicle group: no statistically significant difference
SARS-CoV-2 M^pro
  inhibitory activity on SARS-CoV-2 M^pro: negligible inhibitory activity
SARS-CoV-2 PL^pro
  inhibitory activity on SARS-CoV-2 PL^pro: negligible inhibitory activity
SARS-CoV-2 [4]
  anti-SARS-CoV-2 activity of NAC alone, virus copies in supernatant: negligible anti-SARS-CoV-2 activity

## CNC(=C[N+](=O)[O-])NCCSCc1ccc(CN(C)C)o1.O=C([O-])CC(O)(CC(=O)[O-])C(=O)[O-].[Bi+3] [RBC, ranitidine bismuth citrate]
iso-pH 1.2, in the presence of 10 mol eq. NAC
  cumulative permeated bismuth, PAMPA: 19.77 ng cm^−2
iso-pH 1.2, without NAC
  cumulative permeated bismuth, PAMPA: 15.24 ng cm^−2

## colloidal bismuth subcitrate [CBS]
[5]; pH 3
  solubility in water: about 1 mg mL^−1
[5]; pH 7
  solubility in water: > 70 mg/mL
[6]; 0.5 hour
  blood bismuth concentration: 225.75(±86.05) μg L^−1
[6]; 1 hour
  blood bismuth concentration: 87.27(±21.46) μg L^−1
SARS-CoV-2 [2]
  viral NP antigen in infected Vero E6 cells: 37.25%
SARS-CoV-2 [3]; hamster, in vivo, po
  SARS-CoV-2-NP antigen signal in alveolar tissue of hamster lungs: 68.00(±6.08) NP^+ cells per view
SARS-CoV-2 [3]; oral treatment, end of experimental period
  adverse clinical signs and symptoms of infected hamsters: mildly mitigated
[7]; 24 hour after oral dose
  bismuth accumulation in the kidney: 6839.76(±1652.30) ng per tissue
  bismuth accumulation in the lung: 552.15(±104.97) ng per tissue
[7]; oral CBS 150 mg kg^-1, at around 0.5 h
  first peak value of blood bismuth level: 277.69 µg/L
[7]; [11]
  AUC0→12 h: 1316(±474.00) h μg L^−1
  Cmax (blood bismuth): 447.06(±132.39) μg L^−1
[8]
  hydrolysis of CBS at pH 9.2 in the presence of NAC: prevent hydrolysis
iso-pH 1.2, without NAC
  cumulative permeated bismuth, PAMPA: 16.95 ng cm^−2
[1]
  absorption of bismuth in the rat small intestine: lower than 1%
Caco-2 cell monolayer
  cellular accumulation of bismuth in Caco-2 monolayer: 0.33(±0.02) %
Caco-2 cell monolayer; pH 7.4
  apparent permeability coefficient (Papp) through Caco-2 monolayer: 1.73(±0.02) × 10^−7 cm s^−1
[9]
  cumulative bismuth permeated, everted sac model: 14.68(±4.12) ng cm^−2
ACE2
  inhibition of ACE2 activity: barely displayed anti-ACE2 potency
SARS-CoV-2 [10]
  pEC50: 5.34
